± gives the expanded uncertainty stated by the source.
Details: 101.33 kPa, Liquid; for speed of sound: Sing-around technique in a fixed-path interferometer; for mass density: Vibrating tube method

| Compound | speed of sound (308.15 K) [m/s] | mass density (308.15 K) [kg/m3] | speed of sound (318.15 K) [m/s] | mass density (318.15 K) [kg/m3] |
| --- | --- | --- | --- | --- |
| CCCCCC[n+]1ccc(C)cc1.[Br-] [1-hexyl-4-methylpyridinium bromide] | 1589.8 ± 2.7 | 1214.46 ± 2.3 | 1558.7 ± 2.7 | 1207.88 ± 2.3 |
| CCCCCC[n+]1ccccc1.[Br-] [1-hexylpyridinium bromide] | 1592.5 ± 2.7 | 1235.72 ± 2.4 | 1557.2 ± 2.7 | 1229.23 ± 2.3 |
| CCCCCC[n+]1ccccc1.[Cl-] [1-hexylpyridinium chloride] | 1570.7 ± 2.7 | 1146.65 ± 2.3 | 1549.2 ± 2.7 | 1142.77 ± 2.3 |

Next, values leading:

| speed of sound (308.15 K) [m/s] | mass density (308.15 K) [kg/m3] | speed of sound (318.15 K) [m/s] | mass density (318.15 K) [kg/m3] | Compound |
| --- | --- | --- | --- | --- |
| 1482.6 ± 2.6 | 1128.78 ± 2.2 | 1448.6 ± 2.6 | 1123.06 ± 2.2 | CCCCCCCC[n+]1ccccc1.[Cl-] [N-octylpyridinium chloride] |
| 1507.1 ± 2.6 | 1168.14 ± 2.3 | 1478.3 ± 2.6 | 1161.81 ± 2.3 | CCCCCCCC[n+]1ccccc1.[Br-] [1-octylpyridinium bromide] |
| 1445.5 ± 2.6 | 1107.79 ± 2.2 | 1411.7 ± 2.6 | 1102.01 ± 2.2 | CCCCCCCC[n+]1ccc(C)cc1.[Cl-] [4-methyl-1-octylpyridinium chloride] |

Source: the NIST ThermoML archive (doi:10.1021/acs.jced.6b00460)
